Reference: patent publication US20120029187A1, “HALOALKYLSULFONANILIDE DERIVATIVE” (Nissan Chemical Industries, Ltd., priority 2009, published 2012)

Experiments:
Type in all cases: in vivo
[1] = tested on: common lambsquater; assay: Test Example 3: herbicidal effects in soil treatment; details: dose 3.2 g/a
Outline: (§1)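 Seeds were sown in sterilized diluvial soil and covered with about 1.5 cm of soil. Compounds, formulated as emulsifiable concentrates and diluted with water, were sprayed evenly over the soil surface at set doses in g/a. Herbicidal effect was scored on a rating scale three weeks later.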

[2] = tested on: large crabgrass; assay: as above; details: dose 3.2 g/a
Outline: as §1

[3] = tested on: redroot pigweed; assay: as above; details: dose 3.2 g/a
Outline: as §1

[4] = tested on: water foxtail; assay: as above; details: dose 3.2 g/a
Outline: as §1

[5] = tested on: common ragweed; assay: as above; details: dose 3.2 g/a
Outline: as §1

[6] = tested on: common chickweed; assay: as above; details: dose 3.2 g/a
Outline: as §1

[7] = tested on: Italian ryegrass; assay: as above; details: dose 3.2 g/a
Outline: as §1

[8] = tested on: giant foxtail; assay: as above; details: dose 3.2 g/a
Outline: as §1

[9] = tested on: velvetleaf; assay: as above; details: dose 3.2 g/a
Outline: as §1

[10] = tested on: posumbu knotweed; assay: as above; details: dose 3.2 g/a
Outline: as §1

[11] = tested on: barnyardgrass; assay: as above; details: dose 3.2 g/a
Outline: as §1

[12] = tested on: beadstraw; assay: as above; details: dose 3.2 g/a
Outline: as §1

[13] = tested on: transplanted rice; assay: Test Example 1: preemergence treatment under submerged conditions, effect on crop; details: dose 2.52 g/a
Outline: (§2)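 Score 0–5 by mortality (5: ≥90%; 0: <5%), read 3 weeks post-application. Paddy-type cups: alluvial soil under 4 cm water, weeds seeded plus transplanted 2.5-leaf rice; diluted EC dosed onto water surface same day as sowing, g/a basis; greenhouse 25 to 30° C.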

[14] = tested on: common lambsquater; assay: Test Example 4: herbicidal effect in foliage treatment; details: dose 3.2 g/a
Outline: (§3)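 Herbicidal effect was rated on an evaluation scale three weeks after treatment. Plants had been raised 14 days at 25 to 30° C in sterilized diluvial soil, then received foliar sprays of emulsifiable concentrate diluted in water at predetermined doses expressed as g per are.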

[15] = tested on: large crabgrass; assay: as above; details: dose 3.2 g/a
Outline: as §3

[16] = tested on: redroot pigweed; assay: as above; details: dose 3.2 g/a
Outline: as §3

[17] = tested on: water foxtail; assay: as above; details: dose 3.2 g/a
Outline: as §3

[18] = tested on: common ragweed; assay: as above; details: dose 3.2 g/a
Outline: as §3

[19] = tested on: common chickweed; assay: as above; details: dose 3.2 g/a
Outline: as §3

[20] = tested on: Italian ryegrass; assay: as above; details: dose 3.2 g/a
Outline: as §3

[21] = tested on: giant foxtail; assay: as above; details: dose 3.2 g/a
Outline: as §3

[22] = tested on: velvetleaf; assay: as above; details: dose 3.2 g/a
Outline: as §3

[23] = tested on: posumbu knotweed; assay: as above; details: dose 3.2 g/a
Outline: as §3

[24] = tested on: barnyardgrass; assay: as above; details: dose 3.2 g/a
Outline: as §3

[25] = tested on: beadstraw; assay: as above; details: dose 3.2 g/a
Outline: as §3

[26] = tested on: ducksalad; assay: Test Example 2: herbicidal effects during the vegetation period under submerged conditions; details: treatment during the vegetation period under submerged conditions; dose 2.52 g/a
Outline: (§4)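 Barnyardgrass, bulrush and ducksalad were co-sown in alluvial soil flooded to 4 cm and grown in a greenhouse at 25 to 30° C. At the 1- or 2-leaf stage, water-diluted emulsifiable concentrates went onto the water surface at set doses (g/a). Herbicidal effect was scored three weeks later on a graded scale.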

[27] = tested on: bulrush; assay: as above; details: treatment during the vegetation period under submerged conditions; dose 2.52 g/a
Outline: as §4

[28] = tested on: barnyardgrass; assay: as above; details: treatment during the vegetation period under submerged conditions; dose 2.52 g/a
Outline: as §4

[29] = tested on: ducksalad; assay: Test Example 1: herbicidal effects in preemergence treatment under submerged conditions; details: dose 2.52 g/a
Outline: as §2

[30] = tested on: bulrush; assay: as above; details: dose 2.52 g/a
Outline: as §2

[31] = tested on: barnyardgrass; assay: as above; details: dose 2.52 g/a
Outline: as §2

[32] = three weeks after the application

O=C1CC2(CCCCC2)OCN1Cc1ccccc1NS(=O)(=O)C(F)(F)F [II-67]
L: common lambsquater, herbicidal effect (evaluation scale 0-5) [1]: 5 (mortality of 90% or above (nearly complete death)) | D: large crabgrass, herbicidal effect (evaluation scale 0-5) [2]: 5 (mortality of 90% or above (nearly complete death)) | K: redroot pigweed, herbicidal effect (evaluation scale 0-5) [3]: 3 (mortality of at least 40% and less than 70%) | G: water foxtail, herbicidal effect (evaluation scale 0-5) [4]: 5 (mortality of 90% or above (nearly complete death)) | J: common ragweed, herbicidal effect (evaluation scale 0-5) [5]: 2 (mortality of at least 20% and less than 40%) | N: common chickweed, herbicidal effect (evaluation scale 0-5) [6]: 5 (mortality of 90% or above (nearly complete death)) | H: Italian ryegrass, herbicidal effect (evaluation scale 0-5) [7]: 5 (mortality of 90% or above (nearly complete death)) | E: giant foxtail, herbicidal effect (evaluation scale 0-5) [8]: 5 (mortality of 90% or above (nearly complete death)) | I: velvetleaf, herbicidal effect (evaluation scale 0-5) [9]: 5 (mortality of 90% or above (nearly complete death)) | M: posumbu knotweed, herbicidal effect (evaluation scale 0-5) [10]: 5 (mortality of 90% or above (nearly complete death)) | A: barnyardgrass, herbicidal effect (evaluation scale 0-5) [11]: 5 (mortality of 90% or above (nearly complete death)) | O: beadstraw, herbicidal effect (evaluation scale 0-5) [12]: 5 (mortality of 90% or above (nearly complete death)) | a: transplanted rice, effect on crop (evaluation scale 0-5) [13]: 0 (mortality of less than 5% (almost ineffective)) | L: common lambsquater, herbicidal effect ([14]; three weeks after application): 4 (mortality of at least 70% and less than 90%) | D: large crabgrass, herbicidal effect ([15]; three weeks after application): 5 (mortality of 90% or above (nearly complete death)) | K: redroot pigweed, herbicidal effect ([16]; three weeks after application): 0 (mortality of less than 5% (almost ineffective)) | G: water foxtail, herbicidal effect ([17]; three weeks after application): 5 (mortality of 90% or above (nearly complete death)) | J: common ragweed, herbicidal effect ([18]; three weeks after application): 3 (mortality of at least 40% and less than 70%) | N: common chickweed, herbicidal effect ([19]; three weeks after application): 4 (mortality of at least 70% and less than 90%) | H: Italian ryegrass, herbicidal effect ([20]; three weeks after application): 2 (mortality of at least 20% and less than 40%) | E: giant foxtail, herbicidal effect ([21]; three weeks after application): 5 (mortality of 90% or above (nearly complete death)) | I: velvetleaf, herbicidal effect ([22]; three weeks after application): 5 (mortality of 90% or above (nearly complete death)) | M: posumbu knotweed, herbicidal effect ([23]; three weeks after application): 3 (mortality of at least 40% and less than 70%) | A: barnyardgrass, herbicidal effect ([24]; three weeks after application): 5 (mortality of 90% or above (nearly complete death)) | O: beadstraw, herbicidal effect ([25]; three weeks after application): 3 (mortality of at least 40% and less than 70%) | C: ducksalad, herbicidal effect (evaluation scale 0-5) [26]: 5 (mortality of 90% or above (nearly complete death)) | B: bulrush, herbicidal effect (evaluation scale 0-5) [27]: 5 (mortality of 90% or above (nearly complete death)) | A: barnyardgrass, herbicidal effect (evaluation scale 0-5) [28]: 5 (mortality of 90% or above (nearly complete death)) | C: ducksalad, herbicidal effect (evaluation scale 0-5) [29]: 5 (mortality of 90% or above (nearly complete death)) | B: bulrush, herbicidal effect (evaluation scale 0-5) [30]: 5 (mortality of 90% or above (nearly complete death)) | A: barnyardgrass, herbicidal effect (evaluation scale 0-5) [31]: 5 (mortality of 90% or above (nearly complete death))

CC1CON(Cc2ccccc2NS(=O)(=O)C(F)(F)F)C(=O)O1 (centres unmarked) [III-3]
herbicidal effect, L: common lambsquater [1]: 0 (mortality of less than 5% (almost ineffective)) | herbicidal effect, D: large crabgrass [2]: 5 (mortality of 90% or above (nearly complete death)) | herbicidal effect, K: redroot pigweed [3]: 0 (mortality of less than 5% (almost ineffective)) | herbicidal effect, G: water foxtail [4]: 5 (mortality of 90% or above (nearly complete death)) | herbicidal effect, J: common ragweed [5]: 5 (mortality of 90% or above (nearly complete death)) | herbicidal effect, N: common chickweed [6]: 4 (mortality of at least 70% and less than 90%) | herbicidal effect, H: Italian ryegrass [7]: 0 (mortality of less than 5% (almost ineffective)) | herbicidal effect, E: giant foxtail [8]: 5 (mortality of 90% or above (nearly complete death)) | herbicidal effect, I: velvetleaf [9]: 1 (mortality of at least 5% and less than 20%) | herbicidal effect, M: posumbu knotweed [10]: 5 (mortality of 90% or above (nearly complete death)) | herbicidal effect, A: barnyardgrass [11]: 5 (mortality of 90% or above (nearly complete death)) | herbicidal effect, O: beadstraw [12]: 0 (mortality of less than 5% (almost ineffective)) | a: transplanted rice, effect on crop (evaluation scale 0-5) [13]: 0 (mortality of less than 5% (almost ineffective)) | L: common lambsquater, herbicidal effect [14, 32]: 0 (mortality of less than 5% (almost ineffective)) | D: large crabgrass, herbicidal effect [15, 32]: 4 (mortality of at least 70% and less than 90%) | K: redroot pigweed, herbicidal effect [16, 32]: 0 (mortality of less than 5% (almost ineffective)) | G: water foxtail, herbicidal effect [17, 32]: 5 (mortality of 90% or above (nearly complete death)) | J: common ragweed, herbicidal effect [18, 32]: 4 (mortality of at least 70% and less than 90%) | N: common chickweed, herbicidal effect [19, 32]: 4 (mortality of at least 70% and less than 90%) | H: Italian ryegrass, herbicidal effect [20, 32]: 0 (mortality of less than 5% (almost ineffective)) | E: giant foxtail, herbicidal effect [21, 32]: 4 (mortality of at least 70% and less than 90%) | I: velvetleaf, herbicidal effect [22, 32]: 2 (mortality of at least 20% and less than 40%) | M: posumbu knotweed, herbicidal effect [23, 32]: 2 (mortality of at least 20% and less than 40%) | A: barnyardgrass, herbicidal effect [24, 32]: 5 (mortality of 90% or above (nearly complete death)) | O: beadstraw, herbicidal effect [25, 32]: 4 (mortality of at least 70% and less than 90%) | C: ducksalad, herbicidal effect (evaluation scale 0-5) [26]: 5 (mortality of 90% or above (nearly complete death)) | B: bulrush, herbicidal effect (evaluation scale 0-5) [27]: 5 (mortality of 90% or above (nearly complete death)) | A: barnyardgrass, herbicidal effect (evaluation scale 0-5) [28]: 5 (mortality of 90% or above (nearly complete death)) | C: ducksalad, herbicidal effect (evaluation scale 0-5) [29]: 5 (mortality of 90% or above (nearly complete death)) | B: bulrush, herbicidal effect (evaluation scale 0-5) [30]: 5 (mortality of 90% or above (nearly complete death)) | A: barnyardgrass, herbicidal effect (evaluation scale 0-5) [31]: 4 (mortality of at least 70% and less than 90%)
